Reference: patent US8912360B2, “Methods for preparing ritodrine hydrochloride” (Lundbeck Pharmaceuticals Italy S.p.A., priority 2010, dated 2014)

Assay: Stability / hygroscopicity: water content through Karl Fischer titration after storage
Assay type: physicochemical
Conditions: for hygroscopicity: hydrochloride
Method: The water content was determined through Karl Fischer (KF) titration.
Ritodrine hydrochloride Form I is kept at 40° C. and a relative humidity of 75% for 24 hours. The water content measured through Karl Fischer titration is 0.5% (weight/weight).
Ritodrine hydrochloride Form II is placed in a double polyethylene bag with a desiccant (silica gel) kept in standard conditions for storing active ingredients. After some months the water content of such Ritodrine hydrochloride measured through Karl Fischer titration is 2.2% (weight/weight).

| SMILES | water content measured through Karl Fischer titration (double polyethylene bag with a desiccant (silica gel), standard conditions for storing active ingredients, after some months) | hygroscopicity | water absorption (not exposed directly to a humid environment, normal controlled storing conditions) | water absorption (exposed to a relative humidity of 75%) | water content measured through Karl Fischer titration (kept at 40° C. and a relative humidity of 75% for 24 hours) |
| --- | --- | --- | --- | --- | --- |
| C[C@@H](NCCc1ccc(O)cc1)[C@@H](O)c1ccc(O)cc1.Cl (racemic) [Ritodrine hydrochloride Form II, 4-((1RS,2SR)-1-hydroxy-2-{[2-(4-hydroxyphenyl)ethyl]amino}propyl)phenol hydrochloride] | 2.2 % (weight/weight) | hygroscopic | absorbs water | – | – |
| C[C@@H](NCCc1ccc(O)cc1)[C@@H](O)c1ccc(O)cc1.Cl (racemic) [Ritodrine hydrochloride Form I, 4-((1RS,2SR)-1-hydroxy-2-{[2-(4-hydroxyphenyl)ethyl]amino}propyl)phenol hydrochloride] | – | non-hygroscopic | – | does not absorb water | 0.5 % (weight/weight) |
